Results: US8431402B2, “Method of high frequency regeneration of Sorghum” (Temasek Life Sciences Laboratory Limited, priority 2008, dated 2013)

Test system: dissected embryonated cotyledon (DEC) explants of sweet sorghum hybrid varieties Liotian 1, Lioza 7050A and Liao Ji Za 1
Assay: Regeneration of sorghum via organogenesis from dissected embryonated cotyledon (DEC) explants on stage 1-6 media
Type: cell-based, Sorghum bicolor (L.) Moench
Conditions: for phenolic exudates from the base of the shoot buds: added to stage 2 medium
Procedure: Seeds of sweet sorghum (Sorghum bicolor (L.) Moench) hybrid varieties Liotian 1, Lioza 7050A and Liao Ji Za 1 were obtained from Chinese National Center for Sorghum Improvement, Shenyang City, 110161, Liaoning Province, P.R. China. The viable seeds were washed in chlorohexidine surgical wash (two drops in 100 ml of sterile water) for five minutes and soaked in sterile water for two days at 4° C. in refrigerator. Later these imbibed seeds were further surface sterilized in 10% clorox solution (commercial bleach) for 10 minutes followed by washes with sterile water for five times. To ensure complete sterility, these seeds were rinsed again with 70% alcohol for 90 seconds and subsequently washed with sterile water three times before used as explants.
The radical tissues were completely removed from the dissected embryonated cotyledon (DEC) explants. After six weeks of culture, the SCPC from stage 1 medium were further injured and transferred to stage 2 medium (Table 1) and stage 3 medium (Table 1) at five and ten-day interval for shoot bud induction. Subsequently, the shoot buds developed on stage 3 medium were split into 8-10 clumps with each clumps containing three to five shoots and transferred to stage 4 medium (Table 1) for further shoot induction followed by stage 5 medium (Table 1) for shoot elongation at two-week intervals respectively. The elongated shoot clumps with 2-3 shoots (4 cm height) from stage 5 medium were transferred to stage 6 medium (Table 1) for root induction. The well developed and rooted plantlets were transferred for hardening after two weeks of culture.
The pH of the medium was adjusted to 5.8 with 1N NaOH or 1N HCl prior to the addition of 0.8% phytoagar (stages 1-5 media) or 0.25% phytogel (stage 6 medium) and sterilized by autoclaving at 121° C. for 20 minutes. Approximately 20 ml of sterilized medium was dispensed into sterilized Petri dish (90×15 mm size, plastic polycarbonate, Canada). The chemicals used for media preparations were of analytical grade (Duchefa Biochemie, Haarlem, The Netherlands and Sigma Aldrich, Inc., St Louis, USA). All the cultures were maintained at 25° C. 2° C. under white fluorescent tube lights, 16/8 h (light/dark) photoperiod period, light intensity of 25 μE m^−2s^−1 and with 55-60% relative humidity. The cultures were subcultured at two-week intervals during stage 1, five-day intervals in stages 2 and 3, followed by one-week intervals in stages 4 and 5, with no subculturing in stage 6.

Compound | germination of embryos attached to the cotyledons (present in stage 1 medium) | phenolic exudates from the base of the shoot buds | other results
O=C(O)COc1ccc(Cl)cc1Cl [2,4-D, 2,4-dichlorophenoxy acetic acid] |  |  | callus formation (present in stage 1 medium, 6.78 μM): induced callus formation
CC1=CC(=O)CC(C)(C)[C@@]1(O)/C=C/C(C)=C\C(=O)O [ABA, abscisic acid] | inhibited germination of embryos |  | 
O=[N+]([O-])[O-].[Ag+] [AgNO3] |  | prevented these phenolic exudates | 
O=C1O[C@H]([C@@H](O)CO)C(O)=C1O [Asc, ascorbic acid] |  | prevented these phenolic exudates | 
O=C(O)Cc1c[nH]c2ccccc12 [IAA, indole 3-acetic acid] |  |  | root induction (in stage 6 medium, 5.7 μM): induced roots within one week
NC(=O)CC[C@H](N)C(=O)O [L-glutamine] | inhibited germination of embryos |  | 
NCC(=O)O [L-glycine] |  | prevented these phenolic exudates | 
O=C(O)[C@@H]1CCCN1 [proline, L-proline] | inhibited germination of embryos |  | 
